Test results taken from US8877778B2, “Benzofurane compounds” (Hoffmann-La Roche Inc., priority 2010, dated 2014).

Assays:
[1] = target: human 5-HT2A receptor (Homo sapiens (Human), UniProt P28223); assay: Radioligand binding ([3H]-ketanserin) to cloned receptors expressed in HEK-293 EBNA cells; details: HEK293 EBNA cell membranes expressing human 5-HT2A
Description: (§1) HEK293 EBNA cells were transiently transfected with expression plasmids encoding for the human D2 or D3 or for the human 5-HT2A receptor, respectively. The cells were harvested 48 h post-transfection, washed three times with cold PBS and stored at −80° C. prior to use. The pellet was suspended in cold 50 mM Tris-HCl buffer comprising 10 mM EDTA (pH 7.4) and was homogenized with a Polytron (Kinematica AG, Basel, Switzerland) for 20-30 sec at 12.000 rpm. After centrifugation at 48.000×g for 30 min at 4° C., the pellet was resuspended in cold 10 mM Tris-HCl buffer comprising 0.1 mM EDTA (pH 7.4), homogenized, and centrifuged as above. This pellet was further resuspended in a smaller volume of ice cold 10 mM Tris-HCl buffer comprising 0.1 mM EDTA (pH 7.4) and homogenized with a Polytron for 20-30 sec at 12.000 rpm. The protein content of this homogenate was determined with the Bio-Rad (Bradford) Protein Assay (Biorad Laboratories GmbH, München, Germany) according to the instructions of the manufacturer using gamma globulin as the standard. This homogenate was stored at −80° C. in aliquots and thawed immediately prior to use.
(§2) Aliquots of membrane preparations were thawed at RT, resupended in assay buffer (D2, D3: 50 mM Tris-HCl, 120 mM NaCl, 5 mM MgCl2, 1 mM EDTA, 5 mM KCl, 1.5 mM CaCl2, pH=7.4; 5-HT2A: 50 mM Tris-HCl, 10 mM MgCl2, 1 mM EGTA, pH=7.4), homogenized with a Polytron for 20-30 sec at 12.000 rpm and adjusted to a final concentration of approximately 7.5 μg protein/well (D2, D3) and 15 μg protein/well (5-HT2A), respectively.
(§3) The binding affinity (Ki) of the compounds was determined using radioligand binding. Membranes were incubated in a total volume of 200 μl with a fixed concentration of radioligand (final concentration approximately 0.7 nM [^3H]-spiperone for D2, 0.5 nM [^3H]-spiperone for D3, and 1.1 nM [^3H]-ketanserin for 5-HT2A) and ten concentrations of test compound in ranging between 10 μM-0.1 nM for 1 h at RT. At the end of the incubation, the reaction mixtures were filtered on to unifilter 96-well white microplates with bonded GF/C filters (Packard BioScience, Zürich, Switzerland; preincubated for 1 h in 0.1% polyethylenimine (PEI) in assay buffer) with a Filtermate 196 harvester (Packard BioScience) and washed 3 times with cold assay buffer. The nonspecific binding was determined with equally composed reaction mixtures in the presence of 10 μM unlabelled spiperone. Per well 45 μl of Microscint 40 (Perkin Elmer, Schwerzenbach, Switzerland) was added, plates for sealed, shaken for 20 min and counted for 3 min on a Topcount Microplate Scintillation Counter (Can berra Packard SA, Zürich, Switzerland) with quenching correction.
(§4) The CPM value for each duplicate of a concentration of competing compound was averaged (y1), then the % specific binding was calculated according to the equation (((y1−non-specific)/(total binding−non-specific))×100). Graphs were plotted with the % specific binding using XLfit, a curve fitting program that iteratively plots the data using Levenberg-Marquardt algorithm. The single site competition analysis equation used was y=A+((B−A)/(1+((x/C)D))), where y is the % specific binding, A is the minimum y, B is the maximum y, C is the IC50, x is the log 10 of the concentration of the competing compound and D is the slope of the curve (the Hill Coefficient). […] The affinity constant (Ki) was calculated using the Cheng-Prusoff equation Ki=(IC50/1+([L]/Kd), where [L] is the concentration of radioligand and Kd is the dissociation constant of the radioligand at the receptor as determined by the saturation isotherm.

[2] = target: human D3 receptor (Homo sapiens (Human), UniProt P35462); assay: Radioligand binding ([3H]-spiperone) to cloned receptors expressed in HEK-293 EBNA cells; details: HEK293 EBNA cell membranes expressing human D3
Description: as §1, §2, §3, §4

[3] = target: human D2 receptor (Homo sapiens (Human), UniProt P14416); assay: as above; details: HEK293 EBNA cell membranes expressing human D2
Description: as §1, §2, §3, §4

Chain of human D2 receptor (P14416 whole entry): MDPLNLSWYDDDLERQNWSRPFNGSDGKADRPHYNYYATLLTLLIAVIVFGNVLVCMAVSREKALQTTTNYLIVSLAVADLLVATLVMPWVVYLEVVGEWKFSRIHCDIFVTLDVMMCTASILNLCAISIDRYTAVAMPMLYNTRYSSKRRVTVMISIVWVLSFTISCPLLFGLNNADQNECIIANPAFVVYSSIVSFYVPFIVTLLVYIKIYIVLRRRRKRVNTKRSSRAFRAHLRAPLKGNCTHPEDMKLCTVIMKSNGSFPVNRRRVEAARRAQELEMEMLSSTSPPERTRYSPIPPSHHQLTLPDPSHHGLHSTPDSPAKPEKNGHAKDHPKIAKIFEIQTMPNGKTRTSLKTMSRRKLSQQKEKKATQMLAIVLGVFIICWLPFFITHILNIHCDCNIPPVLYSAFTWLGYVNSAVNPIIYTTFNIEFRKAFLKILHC
Chain of human 5-HT2A receptor (P28223 whole entry): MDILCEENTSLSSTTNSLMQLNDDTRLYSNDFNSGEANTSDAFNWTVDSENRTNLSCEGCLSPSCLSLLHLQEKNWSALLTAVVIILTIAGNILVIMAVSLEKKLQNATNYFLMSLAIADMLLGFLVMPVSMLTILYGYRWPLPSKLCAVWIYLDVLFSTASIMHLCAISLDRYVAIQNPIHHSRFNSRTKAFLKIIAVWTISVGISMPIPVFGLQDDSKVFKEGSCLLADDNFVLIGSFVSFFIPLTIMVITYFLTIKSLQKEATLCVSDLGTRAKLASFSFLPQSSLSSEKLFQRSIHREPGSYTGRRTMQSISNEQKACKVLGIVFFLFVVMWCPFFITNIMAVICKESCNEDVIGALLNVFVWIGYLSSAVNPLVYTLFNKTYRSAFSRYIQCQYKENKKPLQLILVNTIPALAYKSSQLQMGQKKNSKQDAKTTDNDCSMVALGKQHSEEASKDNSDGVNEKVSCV
Chain of human D3 receptor (P35462 whole entry): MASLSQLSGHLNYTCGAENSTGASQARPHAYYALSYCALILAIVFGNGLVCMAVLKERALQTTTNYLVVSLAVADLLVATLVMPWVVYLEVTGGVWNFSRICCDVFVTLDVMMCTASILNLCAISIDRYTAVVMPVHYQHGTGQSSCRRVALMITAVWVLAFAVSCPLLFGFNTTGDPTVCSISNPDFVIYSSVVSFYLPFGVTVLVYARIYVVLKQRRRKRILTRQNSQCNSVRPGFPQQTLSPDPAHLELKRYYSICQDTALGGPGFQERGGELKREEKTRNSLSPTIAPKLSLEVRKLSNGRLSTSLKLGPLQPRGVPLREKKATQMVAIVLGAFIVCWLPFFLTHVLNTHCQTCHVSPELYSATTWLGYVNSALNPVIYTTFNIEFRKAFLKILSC

Structure (SMILES) | Ki [1] [nM] | melting point [°C] | Ki [2] [nM] | Ki [3] [nM]
O=C(Cc1noc2ccccc12)N[C@H]1CC[C@H](CCN2CCC(c3cccc4c3CCO4)CC2)CC1 [Example 93, trans-2-Benzo[d] isoxazol-3-yl-N-(4-{2-[4-(2,3-dihydro-benzofuran-4-yl)-piperidin-1-yl]-ethyl}-cyclohexyl)-acetamide] | 30.7 | 214 | 3.21 | 244
O=C(CCO)N[C@H]1CC[C@H](CCN2CCC(c3cccc4c3CCO4)CC2)CC1 [Example 27, trans-N-(4-{2-[4-(2,3-Dihydro-benzofuran-4-yl)-piperidin-1-yl]-ethyl}-cyclohexyl)-3-hydroxy-propionamide] | 61.8 | 158 | 6.5 | 344
COC(CC(=O)N[C@H]1CC[C@H](CCN2CCC(c3cccc4c3CCO4)CC2)CC1)OC [Example 82, trans-N-(4-{2-[4-(2,3-Dihydro-benzofuran-4-yl)-piperidin-1-yl]ethyl}-cyclohexyl)-3,3-dimethoxy-propionamide] | 69.9 | 240 | 4.78 | 366
CC(C)CC(=O)N[C@H]1CC[C@H](CCN2CCC(c3cccc4c3CCO4)CC2)CC1 [Example 24, trans-N-(4-{2-[4-(2,3-Dihydro-benzofuran-4-yl)-piperidin-1-yl]-ethyl}-cyclohexyl)-3-methyl-butyramide] | 31.1 | 197 | 5.2 | 213
O=CN[C@H]1CC[C@H](CCN2CCC(c3cccc4c3CCO4)CC2)CC1 [Example 87, trans-N-(4-{2-[4-(2,3-Dihydro-benzofuran-4-yl)-piperidin-1-yl]-ethyl}-cyclohexyl)-formamide] | 107 | 142 | 11.5 | 167
O=C(N[C@H]1CC[C@H](CCN2CCC(c3cccc4c3CCO4)CC2)CC1)c1ccc2ncccc2c1 [Example 78, Quinoline-6-carboxylic acid trans-(4-{2-[4-(2,3-dihydro-benzofuran-4-yl)-piperidin-1-yl]-ethyl}-cyclohexyl)-amide] | 30.7 | 238 | 4.35 | 3250
N#Cc1ccc(C(=O)N[C@H]2CC[C@H](CCN3CCC(c4cccc5c4CCO5)CC3)CC2)cc1 [Example 45, trans-4-Cyano-N-(4-{2-[4-(2,3-dihydro-benzofuran-4-yl)-piperidin-1-yl]-ethyl}-cyclohexyl)-benzamide] | 22.2 | 230 | 7.9 | 192
CCC(=O)N[C@H]1CC[C@H](CCN2CCC(c3cccc4occc34)CC2)CC1 [Example 9, trans-N-{4-[2-(4-Benzofuran-4-yl-piperidin-1-yl)-ethyl]-cyclohexyl}-propionamide] | 5.6 | 170 | 2.2 | 91.9
CC(C)C(=O)N[C@H]1CC[C@H](CCN2CCC(c3cccc4c3CCO4)CC2)CC1 [Example 23, trans-N-(4-{2-[4-(2,3-Dihydro-benzofuran-4-yl)-piperidin-1-yl]-ethyl}-cyclohexyl)-isobutyramide] | 19.9 | 212 | 8 | 285
O=C(N[C@H]1CC[C@H](CCN2CCC(c3cccc4c3CCO4)CC2)CC1)C(F)(F)F [Example 43, trans-N-(4-{2-[4-(2,3-Dihydro-benzofuran-4-yl)-piperidin-1-yl]-ethyl}-cyclohexyl)-2,2,2-trifluoro-acetamide] | 55.2 | 173 | 21.9 | 289
N#CCC(=O)N[C@H]1CC[C@H](CCN2CCC(c3cccc4c3CCO4)CC2)CC1 [Example 55, trans-2-Cyano-N-(4-{2-[4-(2,3-dihydro-benzofuran-4-yl)-piperidin-1-yl]-ethyl}-cyclohexyl)-acetamide] | 38.7 | 194 | 3.6 | 140
O=C(N[C@H]1CC[C@H](CCN2CCC(c3cccc4c3CCO4)CC2)CC1)C1CCOCC1 [Example 7, Tetrahydro-pyran-4-carboxylic acid trans-(4-{2-[4-(2,3-dihydro-benzofuran-4-yl)-piperidin-1-yl]-ethyl}-cyclohexyl)-amide] | 12.8 | 227 | 22.8 | 716
O=C(CC1CCC1)N[C@H]1CC[C@H](CCN2CCC(c3cccc4c3CCO4)CC2)CC1 [Example 60, trans-2-Cyclobutyl-N-(4-{2-[4-(2,3-dihydro-benzofuran-4-yl)-piperidin-1-yl]-ethyl}-cyclohexyl)-acetamide] | 44.4 | 196 | 6.1 | 301
Cc1cc(C(=O)N[C@H]2CC[C@H](CCN3CCC(c4cccc5c4CCO5)CC3)CC2)on1 [Example 41, 3-Methyl-isoxazole-5-carboxylic acid trans-(4-{2-[4-(2,3-dihydro-benzofuran-4-yl)-piperidin-1-yl]-ethyl}-cyclohexyl)-amide] | 36.4 | 215 | 10.8 | 124
O=C(N[C@H]1CC[C@H](CCN2CCC(c3cccc4occc34)CC2)CC1)C1CCOCC1 [Example 3, Tetrahydro-pyran-4-carboxylic acid trans-{4-[2-(4-benzofuran-4-yl-piperidin-1-yl)-ethyl]-cyclohexyl}-amide] | 2.2 | 217 | 11.9 | 305
CC(=O)N[C@H]1CC[C@H](CCN2CCC(c3ccc(F)c4occc34)CC2)CC1 [Example 64, trans-N-(4-{2-[4-(7-Fluoro-benzofuran-4-yl)-piperidin-1-yl]-ethyl}-cyclohexyl)-acetamide] | 33.3 | 203.5 | 9.72 | 404
Cc1ccc(C(=O)N[C@H]2CC[C@H](CCN3CCC(c4cccc5c4CCO5)CC3)CC2)cn1 [Example 42, trans-N-(4-{2-[4-(2,3-Dihydro-benzofuran-4-yl)-piperidin-1-yl]-ethyl}-cyclohexyl)-6-methyl-nicotinamide] | 25.4 | 202 | 10.2 | 151
O=C(N[C@H]1CC[C@H](CCN2CCC(c3cccc4c3CCO4)CC2)CC1)c1ccnc2ccccc12 [Example 40, Quinoline-4-carboxylic acid trans-(4-{2-[4-(2,3-dihydro-benzofuran-4-yl)-piperidin-1-yl]-ethyl}-cyclohexyl)-amide] | 24.2 | 211 | 6.1 | 563
CC(C)(O)C(=O)N[C@H]1CC[C@H](CCN2CCC(c3cccc4c3CCO4)CC2)CC1 [Example 38, trans-N-(4-{2-[4-(2,3-Dihydro-benzofuran-4-yl)-piperidin-1-yl]-ethyl}-cyclohexyl)-2-hydroxy-2-methyl-propionamide] | 8 | 163 | 34.9 | 495
CC(C)CCC(=O)N[C@H]1CC[C@H](CCN2CCC(c3cccc4c3CCO4)CC2)CC1 [Example 75, 4-Methyl-pentanoic acid trans-(4-{2-[4-(2,3-dihydro-benzofuran-4-yl)-piperidin-1-yl]-ethyl}-cyclohexyl)-amide] | 72.9 | 188 | 9.97 | 1070
